In the supplement of paper PMC12463676, “Small-molecule dissolution of stress granules by redox modulation benefits ALS models” (Nature Chemical Biology, 2025):

Columns and labels:
lipoamide = compound: NC(=O)CCCCC1CCSS1 [lipoamide]; assay: thermal stability z-score vs DMSO; higher = more thermally stabilized by treatment; conditions: HeLa, lipoamide concentration 100 µM
Protocol: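 Cellular thermal proteome profiling in HeLa cells. Cells were treated with 100 µM lipoamide for 1 h, with or without 1 mM arsenate for a further 1 h, then heated to ten temperatures (37-66.3 °C), and soluble protein was quantified by TMT mass spectrometry relative to 0.1% DMSO controls. The thermal stability score (sum of log2 fold changes minus the abundance score) was transformed to a z-score; mean of n = 3 experiments.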

potassium arsenate = compound: O=[As]([O-])(O)O.[K+] [potassium arsenate]; assay: as above; conditions: HeLa; arsenate concentration 1 mM
Protocol: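 Cellular thermal proteome profiling in HeLa cells treated with 1 mM arsenate for 1 h (DMSO pretreatment), heated to ten temperatures (37-66.3 °C). Soluble protein was quantified by TMT mass spectrometry relative to DMSO controls; the thermal stability score was transformed to a z-score; mean of n = 3 experiments.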

[1] = arsenate co-treatment: 1 mM arsenate 1 h
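Further: each temperature applied for 3 min, abundance score taken as mean log2 fold change at the two lowest temperatures, z-score obtained by mean subtraction and division by SD.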

UniProt A1L0T0, sequence (A1L0T0 whole entry): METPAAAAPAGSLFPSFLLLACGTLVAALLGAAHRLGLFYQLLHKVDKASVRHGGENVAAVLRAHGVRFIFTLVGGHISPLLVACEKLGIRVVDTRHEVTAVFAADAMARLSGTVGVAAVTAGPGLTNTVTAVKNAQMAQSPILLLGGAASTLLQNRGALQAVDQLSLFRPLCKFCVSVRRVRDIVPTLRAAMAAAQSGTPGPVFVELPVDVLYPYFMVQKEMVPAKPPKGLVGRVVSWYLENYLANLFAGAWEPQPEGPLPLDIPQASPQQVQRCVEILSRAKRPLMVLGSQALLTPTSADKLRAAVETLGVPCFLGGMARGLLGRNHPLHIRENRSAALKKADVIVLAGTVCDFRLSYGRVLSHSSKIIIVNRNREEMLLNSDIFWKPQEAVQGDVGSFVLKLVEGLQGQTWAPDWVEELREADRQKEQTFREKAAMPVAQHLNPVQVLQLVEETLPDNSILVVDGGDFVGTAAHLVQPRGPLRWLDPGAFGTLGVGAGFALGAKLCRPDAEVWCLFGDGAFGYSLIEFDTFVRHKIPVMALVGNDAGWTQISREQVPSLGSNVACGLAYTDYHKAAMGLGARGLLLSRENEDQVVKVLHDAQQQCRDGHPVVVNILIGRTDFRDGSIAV
UniProt Q15717, sequence (Q15717 whole entry): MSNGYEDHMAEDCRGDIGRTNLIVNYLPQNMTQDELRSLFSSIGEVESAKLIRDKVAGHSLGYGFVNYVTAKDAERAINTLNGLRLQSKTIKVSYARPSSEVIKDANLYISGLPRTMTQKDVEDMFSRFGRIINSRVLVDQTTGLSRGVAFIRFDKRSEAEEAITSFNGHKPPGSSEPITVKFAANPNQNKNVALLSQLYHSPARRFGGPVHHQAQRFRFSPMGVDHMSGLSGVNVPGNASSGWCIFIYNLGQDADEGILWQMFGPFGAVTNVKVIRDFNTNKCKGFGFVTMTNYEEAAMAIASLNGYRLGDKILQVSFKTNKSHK
UniProt Q9H0R6, sequence (Q9H0R6 whole entry): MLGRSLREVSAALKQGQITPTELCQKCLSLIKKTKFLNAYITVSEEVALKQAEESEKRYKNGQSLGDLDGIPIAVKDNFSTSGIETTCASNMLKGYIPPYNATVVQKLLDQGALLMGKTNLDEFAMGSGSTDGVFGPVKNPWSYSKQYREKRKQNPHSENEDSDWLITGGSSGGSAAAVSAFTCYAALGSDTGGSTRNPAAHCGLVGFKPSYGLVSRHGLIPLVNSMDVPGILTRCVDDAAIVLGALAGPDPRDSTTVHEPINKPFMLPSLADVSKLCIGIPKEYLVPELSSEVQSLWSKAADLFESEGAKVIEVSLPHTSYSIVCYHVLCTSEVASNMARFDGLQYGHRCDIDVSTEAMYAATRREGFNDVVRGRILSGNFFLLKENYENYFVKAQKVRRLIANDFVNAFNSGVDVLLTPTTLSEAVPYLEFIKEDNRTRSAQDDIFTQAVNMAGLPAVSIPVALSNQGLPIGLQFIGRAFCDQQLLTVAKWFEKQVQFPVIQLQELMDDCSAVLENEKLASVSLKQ
UniProt Q9NVF7, sequence (Q9NVF7 whole entry): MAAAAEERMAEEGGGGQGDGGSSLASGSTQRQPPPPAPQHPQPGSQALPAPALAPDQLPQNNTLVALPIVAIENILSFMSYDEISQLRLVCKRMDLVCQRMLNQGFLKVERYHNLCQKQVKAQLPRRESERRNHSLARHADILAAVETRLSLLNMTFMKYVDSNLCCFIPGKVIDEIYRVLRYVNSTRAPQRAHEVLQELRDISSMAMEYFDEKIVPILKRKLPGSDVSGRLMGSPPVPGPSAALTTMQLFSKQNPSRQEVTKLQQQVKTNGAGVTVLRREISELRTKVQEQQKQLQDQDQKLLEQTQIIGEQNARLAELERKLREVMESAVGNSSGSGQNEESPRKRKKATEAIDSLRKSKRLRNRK
UniProt Q9Y4K4, sequence (Q9Y4K4 whole entry, looked up): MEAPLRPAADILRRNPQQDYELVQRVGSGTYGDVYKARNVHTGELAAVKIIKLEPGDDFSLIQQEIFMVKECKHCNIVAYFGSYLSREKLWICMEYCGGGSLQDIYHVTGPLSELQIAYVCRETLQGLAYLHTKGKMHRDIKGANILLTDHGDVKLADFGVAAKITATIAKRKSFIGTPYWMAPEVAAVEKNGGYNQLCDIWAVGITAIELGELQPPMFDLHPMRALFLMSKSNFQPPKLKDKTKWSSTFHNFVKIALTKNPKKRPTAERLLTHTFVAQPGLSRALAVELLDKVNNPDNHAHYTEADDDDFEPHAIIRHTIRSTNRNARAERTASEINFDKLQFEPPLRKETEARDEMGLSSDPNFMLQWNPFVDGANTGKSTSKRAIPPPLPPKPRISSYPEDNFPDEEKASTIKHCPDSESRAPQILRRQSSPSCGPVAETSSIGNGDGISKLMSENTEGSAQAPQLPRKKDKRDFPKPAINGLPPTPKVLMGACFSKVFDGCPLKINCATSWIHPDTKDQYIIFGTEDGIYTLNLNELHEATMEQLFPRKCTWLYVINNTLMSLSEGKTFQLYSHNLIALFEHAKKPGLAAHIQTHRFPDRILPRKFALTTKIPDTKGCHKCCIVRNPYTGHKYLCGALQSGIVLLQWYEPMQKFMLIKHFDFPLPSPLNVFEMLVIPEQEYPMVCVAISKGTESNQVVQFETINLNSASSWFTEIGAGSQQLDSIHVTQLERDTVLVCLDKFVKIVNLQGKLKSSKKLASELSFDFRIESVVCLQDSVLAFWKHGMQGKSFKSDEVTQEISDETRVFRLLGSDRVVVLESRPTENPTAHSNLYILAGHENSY
UniProt Q9NWZ3, sequence (Q9NWZ3 whole entry): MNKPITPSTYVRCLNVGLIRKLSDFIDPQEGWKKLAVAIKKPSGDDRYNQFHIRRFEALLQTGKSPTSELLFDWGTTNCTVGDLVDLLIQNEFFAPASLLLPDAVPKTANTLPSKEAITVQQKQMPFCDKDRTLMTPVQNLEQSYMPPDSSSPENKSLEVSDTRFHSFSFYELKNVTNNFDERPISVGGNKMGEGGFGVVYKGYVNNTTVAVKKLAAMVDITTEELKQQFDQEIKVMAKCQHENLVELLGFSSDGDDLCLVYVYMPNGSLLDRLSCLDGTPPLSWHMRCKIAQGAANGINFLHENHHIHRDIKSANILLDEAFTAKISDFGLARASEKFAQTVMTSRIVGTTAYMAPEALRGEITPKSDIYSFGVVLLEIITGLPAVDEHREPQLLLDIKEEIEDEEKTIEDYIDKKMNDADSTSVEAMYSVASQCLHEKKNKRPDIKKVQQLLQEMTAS
UniProt Q9HBL8, sequence (Q9HBL8 whole entry): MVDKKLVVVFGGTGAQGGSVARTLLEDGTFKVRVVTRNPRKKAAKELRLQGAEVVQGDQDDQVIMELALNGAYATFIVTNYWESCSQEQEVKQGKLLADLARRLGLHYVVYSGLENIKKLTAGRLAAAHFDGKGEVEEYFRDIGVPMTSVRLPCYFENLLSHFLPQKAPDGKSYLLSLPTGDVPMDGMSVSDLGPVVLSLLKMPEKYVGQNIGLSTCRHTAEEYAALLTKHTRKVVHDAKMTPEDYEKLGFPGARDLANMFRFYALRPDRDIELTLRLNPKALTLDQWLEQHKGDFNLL
UniProt Q9HAD4, sequence (Q9HAD4 whole entry): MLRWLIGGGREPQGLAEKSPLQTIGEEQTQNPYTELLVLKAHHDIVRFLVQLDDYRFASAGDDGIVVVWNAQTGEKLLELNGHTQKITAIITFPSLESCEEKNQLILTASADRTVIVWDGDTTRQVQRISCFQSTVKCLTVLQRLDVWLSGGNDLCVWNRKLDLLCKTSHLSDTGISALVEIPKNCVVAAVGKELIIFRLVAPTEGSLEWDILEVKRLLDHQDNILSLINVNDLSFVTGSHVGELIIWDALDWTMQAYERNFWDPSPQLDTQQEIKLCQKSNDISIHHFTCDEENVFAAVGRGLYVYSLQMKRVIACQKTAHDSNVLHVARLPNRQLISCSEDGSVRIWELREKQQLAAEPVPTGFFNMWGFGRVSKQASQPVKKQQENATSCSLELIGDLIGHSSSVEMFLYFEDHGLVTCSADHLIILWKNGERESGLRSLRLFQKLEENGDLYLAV
UniProt O43395, sequence (O43395 whole entry): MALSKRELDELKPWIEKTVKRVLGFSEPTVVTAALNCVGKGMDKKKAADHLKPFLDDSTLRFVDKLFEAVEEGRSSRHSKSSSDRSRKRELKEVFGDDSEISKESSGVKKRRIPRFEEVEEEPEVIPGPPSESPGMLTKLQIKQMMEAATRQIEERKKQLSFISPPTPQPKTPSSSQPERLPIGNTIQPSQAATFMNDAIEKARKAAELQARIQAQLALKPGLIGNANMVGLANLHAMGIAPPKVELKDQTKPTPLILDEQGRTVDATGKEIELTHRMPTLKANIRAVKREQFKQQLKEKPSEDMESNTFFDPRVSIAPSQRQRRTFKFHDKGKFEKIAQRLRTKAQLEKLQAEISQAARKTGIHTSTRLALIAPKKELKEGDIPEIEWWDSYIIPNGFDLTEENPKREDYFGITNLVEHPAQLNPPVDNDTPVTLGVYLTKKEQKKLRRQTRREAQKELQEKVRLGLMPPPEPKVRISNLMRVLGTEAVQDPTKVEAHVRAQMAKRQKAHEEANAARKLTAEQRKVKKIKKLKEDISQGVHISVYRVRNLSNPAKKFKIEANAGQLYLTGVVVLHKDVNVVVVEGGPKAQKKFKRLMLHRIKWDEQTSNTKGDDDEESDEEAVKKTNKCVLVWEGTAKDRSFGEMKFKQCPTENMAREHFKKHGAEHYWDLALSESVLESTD
UniProt P23919, sequence (P23919 whole entry): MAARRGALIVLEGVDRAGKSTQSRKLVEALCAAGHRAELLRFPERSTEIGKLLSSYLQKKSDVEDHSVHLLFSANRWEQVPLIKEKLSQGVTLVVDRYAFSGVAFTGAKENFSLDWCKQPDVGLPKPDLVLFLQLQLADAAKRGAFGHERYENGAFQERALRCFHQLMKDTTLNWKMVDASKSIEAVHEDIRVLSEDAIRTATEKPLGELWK

Target	thermal stability z-score (lipoamide; [1])	thermal stability z-score (lipoamide; arsenate co-treatment: none)	thermal stability z-score (potassium arsenate)
MSRB3 (UniProt Q8IXL7)	0.866	0.887	0.269
C6ORF106 (UniProt Q9H6K1)	-0.69	-0.401	0.242
NAPG (UniProt Q99747)	-0.212	-0.012	0.0503
GTF3C6 (UniProt Q969F1)	0.05	-0.0491	-0.175
PYGB (UniProt P11216)	0.243	0.0472	-1.24
HEXB (UniProt P07686)	-0.421	-0.254	0.149
CYP2S1 (UniProt Q96SQ9)	-1.14	-0.765	-0.647
ALG3 (UniProt Q92685)	-0.0793	-0.236	0.141
CHID1 (UniProt Q9BWS9)	-3.11	-1.7	1.18
SLIRP (UniProt Q9GZT3)	-0.917	-0.197	0.123
TMEM63A (UniProt O94886)	-0.739	-0.0217	-0.159
MRPL2 (UniProt Q5T653)	0.745	0.173	0.601
OAS1 (UniProt P00973)	-0.156	0.0182	-0.247
CSRP2 (UniProt Q16527)	0.688	0.0492	-0.0511
PDLIM5 (UniProt Q96HC4)	-0.252	-0.371	-2.23
EXOC1 (UniProt Q9NV70)	-0.268	0.043	0.0191
EBNA1BP2 (UniProt Q99848)	0.29	-0.281	0.463
WBP4 (UniProt O75554)	1.32	0.617	-2.19
PRPF3 (UniProt O43395)	2.57	2.44	-0.0589
PHF23 (UniProt Q9BUL5)	0.843	0.376	-3.81
CLIP1 (UniProt P30622)	-0.0952	0.0784	-0.345
ILVBL (UniProt A1L0T0)	1.34	0.509	0.772
WDR41 (UniProt Q9HAD4)	-0.212	-0.267	-0.285
PEF1 (UniProt Q9UBV8)	0.534	0.979	0.494
TMEM160 (UniProt Q9NX00)	-0.0998	0.628	0.0213
PIGU (UniProt Q9H490)	-0.834	-0.665	0.169
REEP4 (UniProt Q9H6H4)	-0.55	-0.227	0.579
DTYMK (UniProt P23919)	-0.383	0.537	-1.22

Target	thermal stability z-score (lipoamide; [1])	thermal stability z-score (lipoamide; arsenate co-treatment: none)	thermal stability z-score (potassium arsenate)
ABHD11 (UniProt Q8NFV4)	0.183	0.151	0.254
EEA1 (UniProt Q15075)	0.149	0.231	-0.325
CERS2 (UniProt Q96G23)	-0.901	-1.12	-0.575
AGPAT1 (UniProt Q99943)	-0.0471	-0.591	0.0795
NMRAL1 (UniProt Q9HBL8)	1.43	1.45	1.37
PPP2R5A (UniProt Q15172)	0.468	0.527	0.703
SCRN3 (UniProt Q0VDG4)	-0.445	-0.169	-0.0506
OS9 (UniProt Q13438)	-3.59	-3.15	0.706
SEC16A (UniProt O15027)	0.237	1.39	0.285
GPKOW (UniProt Q92917)	0.182	0.0635	-1.58
UBE2K (UniProt P61086)	0.398	-0.0311	-0.201
IL27RA (UniProt Q6UWB1)	-0.395	0.44	1.33
CTPS2 (UniProt Q9NRF8)	0.218	-0.0335	0.109
PTBP2 (UniProt Q9UKA9)	-0.138	-0.14	-0.161
IRAK4 (UniProt Q9NWZ3)	-0.11	-0.0699	-0.11
ELAVL1 (UniProt Q15717)	-0.0114	0.173	-0.765
RBM28 (UniProt Q9NW13)	-0.0361	-0.0267	-0.81
FBXO28 (UniProt Q9NVF7)	0.0993	-0.125	-0.115
RPP38 (UniProt P78345)	-0.128	0.146	-0.347
GOLPH3 (UniProt Q9H4A6)	-0.65	-0.881	-0.641
SET (UniProt Q01105)	0.154	0.00988	-0.503
RBM6 (UniProt P78332)	-0.00588	0.0644	0.000188
MORC2 (UniProt Q9Y6X9)	-0.165	-0.0529	-0.726
MAP4K5 (UniProt Q9Y4K4)	-0.212	0.00139	0.00285
PAPSS1 (UniProt O43252)	-0.0513	-0.0832	0.0908
QRSL1 (UniProt Q9H0R6)	-0.401	-2.57	0.708
FAM46A (UniProt Q96IP4)	-0.0743	0.0046	-0.0735
